Laboratory results published in ChEMBL document CHEMBL4177586, “Small molecule adjuvants that suppress both chromosomal and mcr-1 encoded colistin-resistance and amplify colistin efficacy in polymyxin-susceptible bacteria” (Bioorg Med Chem, 2017).
≈ marks a conversion by molar mass, not a printed value.

Legend:
[1] = tested on: Klebsiella pneumoniae; experiment: Toxicity against Klebsiella pneumoniae BAA2146 incubated for overnight duration by CLSI based method; assay type: organism-based; conditions: in vivo
[2] = tested on: Acinetobacter baumannii; experiment: Potentiation of colistin-induced antimicrobial activity against multidrug resistant Acinetobacter baumannii BAA1605 assessed as minimum drug concentration needed to cause colsitin MIC of 0.125 ug/ml incubated for overnight duration by CLSI based method; assay type: functional
[3] = tested on: Escherichia coli; experiment: Toxicity against Escherichia coli ATCC 25922 expressing mcr1 gene incubated for overnight duration by CLSI based method; assay type: organism-based; conditions: in vivo
[4] = tested on: Acinetobacter baumannii; experiment: Potentiation of colistin-induced antimicrobial activity against Acinetobacter baumannii SM1536 assessed as reduction in colistin MIC at 30 uM incubated for overnight duration by CLSI based method relative to colistin alone control; assay type: functional
[5] = tested on: Acinetobacter baumannii; experiment: Potentiation of colistin-induced antimicrobial activity against multidrug resistant Acinetobacter baumannii 5075 assessed as minimum drug concentration needed to cause colsitin MIC of 0.125 ug/ml incubated for overnight duration by CLSI based method; assay type: functional
[6] = tested on: Klebsiella pneumoniae; experiment: Toxicity against Klebsiella pneumoniae 2210291 expressing mcr1 gene incubated for overnight duration by CLSI based method; assay type: organism-based; conditions: in vivo
[7] = tested on: Escherichia coli; experiment: Potentiation of colistin-induced antimicrobial activity against Escherichia coli ATCC 25922 expressing mcr1 gene assessed as colistin MIC at 15 uM incubated for overnight duration by CLSI based method (reference value: 8 ug/ml); assay type: functional
[8] = tested on: Acinetobacter baumannii; experiment: Toxicity against Acinetobacter baumannii SM1536 expressing mcr1 gene incubated for overnight duration by CLSI based method; assay type: organism-based; conditions: in vivo
[9] = tested on: Acinetobacter baumannii; experiment: Toxicity against Acinetobacter baumannii ATCC 17978 expressing mcr1 gene incubated for overnight duration by CLSI based method; assay type: organism-based; conditions: in vivo
[10] = tested on: Escherichia coli; experiment: Toxicity against Escherichia coli ATCC 25922 incubated for overnight duration by CLSI based method; assay type: organism-based; conditions: in vivo
[11] = tested on: Escherichia coli; experiment: Toxicity against Escherichia coli YD626 expressing mcr1 gene incubated for overnight duration by CLSI based method; assay type: organism-based; conditions: in vivo
[12] = tested on: Acinetobacter baumannii; experiment: Potentiation of colistin-induced antimicrobial activity against Acinetobacter baumannii ATCC 17978 expressing mcr1 gene assessed as colistin MIC at 15 uM incubated for overnight duration by CLSI based method (reference value: 16 ug/ml); assay type: functional
[13] = tested on: Klebsiella pneumoniae; experiment: Potentiation of colistin-induced antimicrobial activity against colistin-resistant Klebsiella pneumoniae C5 assessed as reduction in colistin MIC at 15 uM incubated for overnight duration by CLSI based method relative to colistin alone control; assay type: functional
[14] = tested on: Acinetobacter baumannii; experiment: Potentiation of colistin-induced antimicrobial activity against colistin-resistant Acinetobacter baumannii PM4112 assessed as colistin MIC at 15 uM incubated for overnight duration by CLSI based method (reference value: 1024 ug/ml); assay type: functional
[15] = tested on: Acinetobacter baumannii; experiment: Potentiation of colistin-induced antimicrobial activity against colistin-resistant Acinetobacter baumannii PM4119 assessed as reduction in colistin MIC at 60 uM incubated for overnight duration by CLSI based method relative to colistin alone control; assay type: functional
[16] = tested on: Escherichia coli; experiment: Potentiation of colistin-induced antimicrobial activity against Escherichia coli YD626 expressing mcr1 gene assessed as colistin MIC at 60 uM incubated for overnight duration by CLSI based method (reference value: 4 ug/ml); assay type: functional
[17] = tested on: Klebsiella pneumoniae; experiment: Potentiation of colistin-induced antimicrobial activity against Klebsiella pneumoniae 2210291 expressing mcr1 gene assessed as reduction in colistin MIC at 60 uM incubated for overnight duration by CLSI based method relative to colistin alone control; assay type: functional
[18] = tested on: Acinetobacter baumannii; experiment: Potentiation of colistin-induced antimicrobial activity against Acinetobacter baumannii ATCC 17978 expressing mcr1 gene assessed as reduction in colistin MIC at 60 uM incubated for overnight duration by CLSI based method relative to colistin alone control; assay type: functional
[19] = tested on: Acinetobacter baumannii; experiment: Potentiation of colistin-induced antimicrobial activity against colistin-resistant Acinetobacter baumannii PM4119 assessed as colistin MIC at 30 uM incubated for overnight duration by CLSI based method (reference value: 1024 ug/ml); assay type: functional
[20] = tested on: Acinetobacter baumannii; experiment: Potentiation of colistin-induced antimicrobial activity against colistin-resistant Acinetobacter baumannii PM3941 assessed as reduction in colistin MIC at 15 uM incubated for overnight duration by CLSI based method relative to colistin alone control; assay type: functional
[21] = tested on: Acinetobacter baumannii; experiment: Potentiation of colistin-induced antimicrobial activity against colistin-resistant Acinetobacter baumannii PM3942 assessed as reduction in colistin MIC at 15 uM incubated for overnight duration by CLSI based method relative to colistin alone control; assay type: functional
[22] = tested on: Acinetobacter baumannii; experiment: Potentiation of colistin-induced antimicrobial activity against colistin-resistant Acinetobacter baumannii PM4119 assessed as colistin MIC at 15 uM incubated for overnight duration by CLSI based method (reference value: 1024 ug/ml); assay type: functional
[23] = tested on: Klebsiella pneumoniae; experiment: Potentiation of colistin-induced antimicrobial activity against Klebsiella pneumoniae 2210291 expressing mcr1 gene assessed as colistin MIC at 60 uM incubated for overnight duration by CLSI based method (reference value: 16 ug/ml); assay type: functional
[24] = tested on: Acinetobacter baumannii; experiment: Potentiation of colistin-induced antimicrobial activity against colistin-resistant Acinetobacter baumannii PM3942 assessed as colistin MIC at 30 uM incubated for overnight duration by CLSI based method (reference value: 512 ug/ml); assay type: functional
[25] = tested on: Escherichia coli; experiment: Potentiation of colistin-induced antimicrobial activity against Escherichia coli ATCC 25922 expressing mcr1 gene assessed as colistin MIC at 60 uM incubated for overnight duration by CLSI based method (reference value: 8 ug/ml); assay type: functional
[26] = tested on: Acinetobacter baumannii; experiment: Potentiation of colistin-induced antimicrobial activity against colistin-resistant Acinetobacter baumannii PM3941 assessed as colistin MIC at 30 uM incubated for overnight duration by CLSI based method (reference value: 512 ug/ml); assay type: functional
[27] = tested on: Acinetobacter baumannii; experiment: Potentiation of colistin-induced antimicrobial activity against Acinetobacter baumannii SM1536 expressing mcr1 gene assessed as reduction in colistin MIC at 60 uM incubated for overnight duration by CLSI based method relative to colistin alone control; assay type: functional
[28] = tested on: Escherichia coli; experiment: Potentiation of colistin-induced antimicrobial activity against Escherichia coli YD626 expressing mcr1 gene assessed as reduction in colistin MIC at 60 uM incubated for overnight duration by CLSI based method relative to colistin alone control; assay type: functional
[29] = tested on: Klebsiella pneumoniae; experiment: Potentiation of colistin-induced antimicrobial activity against colistin-resistant Klebsiella pneumoniae C5 assessed as colistin MIC at 60 uM incubated for overnight duration by CLSI based method (reference value: 128 ug/ml); assay type: functional
[30] = tested on: Acinetobacter baumannii; experiment: Potentiation of colistin-induced antimicrobial activity against colistin-resistant Acinetobacter baumannii PM3941 assessed as colistin MIC at 15 uM incubated for overnight duration by CLSI based method (reference value: 512 ug/ml); assay type: functional
[31] = tested on: Klebsiella pneumoniae; experiment: Potentiation of colistin-induced antimicrobial activity against colistin-resistant Klebsiella pneumoniae C3 assessed as colistin MIC at 60 uM incubated for overnight duration by CLSI based method (reference value: 512 ug/ml); assay type: functional
[32] = tested on: Acinetobacter baumannii; experiment: Potentiation of colistin-induced antimicrobial activity against Acinetobacter baumannii ATCC 17978 expressing mcr1 gene assessed as colistin MIC at 60 uM incubated for overnight duration by CLSI based method (reference value: 16 ug/ml); assay type: functional
[33] = tested on: Acinetobacter baumannii; experiment: Potentiation of colistin-induced antimicrobial activity against colistin-resistant Acinetobacter baumannii PM4119 assessed as colistin MIC at 60 uM incubated for overnight duration by CLSI based method (reference value: 1024 ug/ml); assay type: functional

SMILES: CCCCCCc1ccc(-c2cn(C(C)C)c(N)n2)cc1
- MIC [1]: > 200 µM
- MIC [2]: 25 µM
- MIC [3]: > 200 µM
- fold change (FC) [4]: 128
- MIC [5]: 20 µM
- MIC [6]: > 200 µM
- MIC [7]: 8 µg/mL
- MIC [8]: > 200 µM
- MIC [9]: > 200 µM
- MIC [10]: 200 µM (≈ 57.1 µg/mL)
- MIC [11]: > 200 µM
- MIC [12]: 4 µg/mL

SMILES: CCCCCCc1ccc(-c2cn(CC)c(N)n2)cc1
- MIC [1]: > 200 µM
- MIC [2]: 15 µM
- MIC [3]: 50 µM (≈ 13.6 µg/mL)
- fold change (FC) [4]: 256
- MIC [5]: 15 µM
- MIC [6]: > 200 µM
- MIC [7]: 4 µg/mL
- MIC [8]: > 200 µM
- MIC [9]: > 200 µM
- MIC [10]: 200 µM (≈ 54.3 µg/mL)
- MIC [11]: 100 µM (≈ 27.1 µg/mL)
- MIC [12]: 4 µg/mL

SMILES: CCCCCc1ccc(C(=O)NCCn2cc(CCCCCc3cnc(N)n3Cc3ccc(CCCC)cc3)nn2)cc1
- MIC [1]: > 200 µM
- MIC [2]: 5 µM
- fold change (FC) [13]: 4
- MIC [14]: 32 µg/mL
- fold change (FC) [15]: 512
- MIC [16]: < 0.002 µg/mL
- fold change (FC) [17]: 128
- fold change (FC) [18]: 64
- fold change (FC) [4]: >2048
- MIC [19]: 4 µg/mL
- MIC [5]: 10 µM
- fold change (FC) [20]: 16
- fold change (FC) [21]: 16
- MIC [7]: 0.5 µg/mL
- MIC [22]: 16 µg/mL
- MIC [10]: > 200 µM
- MIC [23]: 0.125 µg/mL
- MIC [24]: 16 µg/mL
- MIC [25]: 0.031 µg/mL
- MIC [26]: 16 µg/mL
- fold change (FC) [27]: 64
- fold change (FC) [28]: >2048
- MIC [29]: 2 µg/mL
- MIC [30]: 32 µg/mL
- MIC [31]: 8 µg/mL
- MIC [32]: 0.25 µg/mL
- MIC [12]: 2 µg/mL
- MIC [33]: 2 µg/mL
